Experiments:
Type in all cases: cell-based
[1] = tested on: Human pancreatic cancer cell CFPAC-1; assay: CCK-8 cell proliferation assay, CFPAC-1; settings: CFPAC-1 cells, CCK-8, 24 hrs with drug, OD 450 nm
Experimental: (§1) The effect of samples on the proliferation of human tumor cells in vitro was determined by CCK-8 cell proliferation assay.
(§2) The cells were assayed through a method including the following steps:
(§3) 1) The cells were digested, counted, and prepared into a cell suspension in a corresponding culture medium (Table 1) (5×10^4 cells/ml for CFPAC-1 and RPMI 8226, and 3.5×10^4 cells/ml for rest cells). The cell suspension was added to each well of a 96-well plate in 100 μl well.
(§4) 2) Then the 96-well plate was incubated for 24 hrs in an incubator at 37° C. and 5% CO2.
(§5) 3) The drug was diluted with the culture medium to the required working concentration. 100 μl of the corresponding drug containing medium was added to each well. A negative control group (added with drug-free culture medium) was also set.
(§6) 4) Then the 96-well plate was incubated for 24 hrs in an incubator at 37° C. and 5% CO2.
(§7) 5) The 96-well plate was stained with CCK-8, and The OD value was determined at λ=450 nm.
(§8) a) 10 μl of CCK-8 was added to each well, and incubated in the incubator for another 2-3 hrs.
(§9) b) The content was mixed uniformly by shaking gently on a shaker for 10 min, and the bubbles in the 96-well plate were removed.
(§10) 6) The inhibition rate in each group was calculated.

[2] = tested on: Human gastric cancer cell MKN45; assay: CCK-8 cell proliferation assay, MKN-45; settings: MKN-45 cells, CCK-8, 24 hrs with drug, OD 450 nm
Experimental: as §1, §2, §3, §4, §5, §6, §7, §8, §9, §10

[3] = tested on: Human hepatoma cell HepG2; assay: CCK-8 cell proliferation assay, HepG2; settings: HepG2 cells, CCK-8, 24 hrs with drug, OD 450 nm
Experimental: as §1, §2, §3, §4, §5, §6, §7, §8, §9, §10

[4] = tested on: Human colon cancer cell HCT-116; assay: CCK-8 cell proliferation assay, HCT116; settings: HCT116 cells, CCK-8, 24 hrs with drug, OD 450 nm
Experimental: as §1, §2, §3, §4, §5, §6, §7, §8, §9, §10

[5] = tested on: Human multiple myeloma cell RPMI 8226; assay: CCK-8 cell proliferation assay, RPMI8226; settings: RPMI8226 cells, CCK-8, 24 hrs with drug, OD 450 nm
Experimental: as §1, §2, §3, §4, §5, §6, §7, §8, §9, §10

[6] = tested on: Human lung adenocarcinoma cell A549; assay: CCK-8 cell proliferation assay, A549; settings: A549 cells, CCK-8, 24 hrs with drug, OD 450 nm
Experimental: as §1, §2, §3, §4, §5, §6, §7, §8, §9, §10

[7] = tested on: Human esophageal cancer cell TE-1; assay: CCK-8 cell proliferation assay, TE-1; settings: TE-1 cells, CCK-8, 24 hrs with drug, OD 450 nm
Experimental: as §1, §2, §3, §4, §5, §6, §7, §8, §9, §10

SMILES | IC50 [1] [nM] | IC50 [2] [nM] | IC50 [3] [nM] | IC50 [4] [nM] | IC50 [5] [nM] | IC50 [6] [nM] | IC50 [7] [nM]
O=C(NCCCCCC1CCN(C(=O)c2ccccc2)C1)Nc1ccncc1 (stereo not drawn) [BSS-TP007, 1-(5-(1-(benzoyl)pyrrolidin-3-yl)pentyl)-2-(4-pyridinyl)urea] | 28 | 57 | 69 | 33 | 17 | 31 | 76
O=C(NCCCCCC1CCN(C(=O)c2cccs2)C1)Nc1ccncc1 (stereo not drawn) [BSS-TP008, 1-(5-(1-(2-thienylformyl)pyrrolidin-3-yl)pentyl)-2-(4-pyridinyl)urea] | 22 | 43 | 51 | 77 | 33 | 55 | 58
COc1cccc(OC)c1C(=O)N1CCC(CCCCCNC(=O)Nc2ccncc2)C1 (stereo not drawn) [BSS-TP009, 1-(5-(1-(2,6-dimethoxybenzoyl)pyrrolidin-3-yl)pentyl)-2-(4-pyridinyl) urea] | 39 | 63 | 46 | 21 | 26 | 29 | 49
O=C(NCCCCCC1CCN(C(=O)c2ccc[nH]2)C1)Nc1ccncc1 (stereo not drawn) [BSS-TP010, 1-(5-(1-(2-pyrrolylformyl)pyrrolidin-3-yl)pentyl)-2-(4-pyridinyl)urea] | 38 | 34 | 41 | 25 | 20 | 36 | 42
O=C(NCCCCCC1CCN(C(=O)c2ccco2)C1)Nc1ccncc1 (stereo not drawn) [BSS-TP011, 1-(5-(1-(furoyl)pyrrolidin-3-yl)pentyl)-2-(4-pyridinyl)urea] | 29 | 36 | 77 | 71 | 32 | 33 | 81
O=C(NCCCCCC1CCN(C(=O)C2CCCO2)C1)Nc1ccncc1 (stereo not drawn) [BSS-TP012, 1-(5-(1-(2-tetrahydrofurylformyl)pyrrolidin-3-yl)pentyl)-2-(4-pyridinyl)urea] | 38 | 59 | 124 | 51 | 30 | 67 | 137
O=C(NCCCCCC1CCN(C(=O)C2CCCS2)C1)Nc1ccncc1 (stereo not drawn) [BSS-TP013, 1-(5-(1-(2-tetrahydrothienylformyl)pyrrolidin-3-yl)pentyl)-2-(4-pyridinyl)urea] | 41 | 73 | 133 | 68 | 45 | 81 | 98
O=C(NCCCCCC1CCN(C(=O)C2CCCN2)C1)Nc1ccncc1 (stereo not drawn) [BSS-TP014, 1-(5-(1-(2-pyrrolidinylformyl)pyrrolidin-3-yl)pentyl)-2-(4-pyridinyl)urea] | 51 | 91 | 89 | 62 | 50 | 117 | 82
O=C(NCCCCCC1CCN(C(=O)c2ccccc2)C1)Nc1ccnc(F)c1 (stereo not drawn) [BSS-TP015] | 28 | 33 | 39 | 43 | 22 | 31 | 57
COc1cccc(OC)c1C(=O)N1CCC(CCCCCNC(=O)Nc2ccnc(F)c2)C1 (stereo not drawn) [BSS-TP016] | 32 | 46 | 59 | 41 | 30 | 30 | 55
O=C(NCCCCCC1CCN(C(=O)c2ccc[nH]2)C1)Nc1ccnc(F)c1 (stereo not drawn) [BSS-TP017] | 41 | 55 | 77 | 57 | 42 | 41 | 69
O=C(NCCCCCC1CCN(C(=O)c2ccco2)C1)Nc1ccnc(F)c1 (stereo not drawn) [BSS-TP018] | 33 | 39 | 61 | 51 | 38 | 38 | 88
O=C(NCCCCCC1CCN(C(=O)c2cccs2)C1)Nc1ccnc(F)c1 (stereo not drawn) [BSS-TP019] | 49 | 71 | 85 | 39 | 44 | 72 | 132
O=C(NCCCCCC1CCN(C(=O)C2CCCN2)C1)Nc1ccnc(F)c1 (stereo not drawn) [BSS-TP020] | 34 | 52 | 49 | 47 | 33 | 93 | 91
O=C(NCCCCCC1CCN(C(=O)c2ccccc2)C1)Nc1cc(F)nc(F)c1 (stereo not drawn) [BSS-TP021] | 31 | 65 | 42 | 77 | 42 | 33 | 65
O=C(NCCCCCC1CCN(C(=O)c2ccccc2)C1)Nc1cccnc1 (stereo not drawn) [BSS-TP023, 1-(5-(1-(benzoyl)pyrrolidin-3-yl)pentyl)-2-(3-pyridinyl)urea] | 46 | 76 | 72 | 69 | 42 | 53 | 102
O=C(NCCCCCC1CCN(C(=O)c2cccs2)C1)Nc1cccnc1 (stereo not drawn) [BSS-TP024, 1-(5-(1-(2-thienylformyl)pyrrolidin-3-yl)pentyl)-2-(3-pyridinyl)urea] | 39 | 81 | 74 | 73 | 49 | 59 | 111
O=C(NCCCCCC1CCN(C(=O)c2cc3ccccc3[nH]2)C1)Nc1ccncc1 (stereo not drawn) [BSS-TP025, 1-(5-(1-(2-indolylformyl)pyrrolidin-3-yl)pentyl)-2-(4-pyridinyl)urea] | 37 | 53 | 77 | 54 | 40 | 62 | 65
O=C(NCCCCCC1CCN(C(=O)c2cc3ccccc3o2)C1)Nc1ccncc1 (stereo not drawn) [BSS-TP026, 1-(5-(1-(2-benzofurylformyl)pyrrolidin-3-yl)pentyl)-2-(4-pyridinyl)urea] | 42 | 71 | 83 | 92 | 51 | 69 | 72
O=C(NCCCCCC1CCN(C(=O)C2Cc3ccccc3O2)C1)Nc1ccncc1 (stereo not drawn) [BSS-TP027, 1-(5-(1-(2-benzotetrahydrofurylformyl)pyrrolidin-3-yl)pentyl)-2-(4-pyridinyl)urea] | 59 | 65 | 102 | 92 | 55 | 88 | 93
O=C(NCCCCCC1CCN(C(=O)c2ccco2)C1)Nc1cccnc1 (stereo not drawn) [BSS-TP028, 1-(5-(1-(furoyl)pyrrolidin-3-yl)pentyl)-2-(3-pyridinyl)urea] | 31 | 44 | 59 | 63 | 42 | 41 | 57
O=C(NCCCCCC1CCN(C(=O)c2occc2F)C1)Nc1ccncc1 (stereo not drawn) [BSS-TP030] | 40 | 57 | 63 | 62 | 46 | 42 | 60
O=C(NCCCCCC1CCN(C(=O)c2[nH]ccc2F)C1)Nc1ccncc1 (stereo not drawn) [BSS-TP031] | 33 | 45 | 51 | 53 | 39 | 59 | 68
COc1cccc(OC)c1C(=O)N1CCC(CCCCCNC(=O)Nc2cc(F)nc(F)c2)C1 (stereo not drawn) [BSS-TP032] | 39 | 74 | 99 | 69 | 58 | 73 | 117
COc1cccc(OC)c1C(=O)N1CCC(CCCCCNC(=O)Nc2cccnc2)C1 (stereo not drawn) [BSS-TP033, 1-(5-(1-(2,6-dimethoxybenzoyl)pyrrolidin-3-yl)pentyl)-2-(3-pyridinyl) urea] | 56 | 65 | 82 | 72 | 53 | 64 | 87
O=C(NCCCCCC1CCN(C(=O)c2ccco2)C1)Nc1cc(F)nc(F)c1 (stereo not drawn) [BSS-TP035] | 35 | 47 | 81 | 66 | 29 | 39 | 73
O=C(NCCCCCC1CCN(C(=O)c2cc3ccccc3o2)C1)Nc1cc(F)nc(F)c1 (stereo not drawn) [BSS-TP036] | 42 | 53 | 126 | 78 | 49 | 58 | 94
